According to PubChem BioAssay (NCI):
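Each compound was tested at five concentrations against cells in 96-well plates for 48 hours. At the GI50, growth is halved. TGI is the concentration that stops growth completely.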

What was measured:
Assay in all cases: inhibition of tumour cell growth, NCI panel, 48 h
[1] = test system: CAKI-1 renal
[2] = test system: KM12 colon
[3] = test system: MOLT-4 leukemia
[4] = test system: HOP-92 NSCLC
[5] = test system: RXF 393 renal
[6] = test system: SF-295 CNS
[7] = test system: HCT-15 colon
[8] = test system: MALME-3M melanoma
[9] = test system: CCRF-CEM leukemia
[10] = test system: OVCAR-3 ovarian

Compound	TGI [1] [µM]	TGI [2] [µM]	TGI [3] [µM]	TGI [4] [µM]	TGI [5] [µM]	TGI [6] [µM]	TGI [7] [µM]	TGI [8] [µM]	TGI [9] [µM]	TGI [10] [µM]	GI50 [1] [µM]	GI50 [2] [µM]	GI50 [10] [µM]	GI50 [3] [µM]	GI50 [6] [µM]	GI50 [7] [µM]	GI50 [8] [µM]	GI50 [9] [µM]	GI50 [4] [µM]	GI50 [5] [µM]
COC(=O)/C(=N\NC(=S)NN)C(C(=O)C(=O)Nc1ccccc1C(N)=O)c1nc2ccccc2[nH]c1=O (stereo not given)	> 100	> 100	> 100	> 100	> 100	> 100	> 100	> 100	> 100	–	–	–	–	–	–	–	–	–	–	–
CCOc1cccc2nc3cccc(C(=O)NCCN(C)C)c3nc12	–	9.36	0.746	–	3.21	–	7.47	2.42	–	5.51	–	–	–	–	–	–	–	–	–	–
COc1cc(/C=C2\CC3C4CC=C5CC(N6CCCC6)CC[C@]5(C)C4CC[C@]3(C)C2OC(C)=O)ccc1OCCN1CCCC1 (stereo not given in full)	3.93	5.99	4.48	–	–	26.5	3.4	3.07	4.87	2	1.55	2.27	0.304	2.18	12.7	1.52	1.49	1.95	–	–
COc1ccc(C(=O)C(C(=O)CCC(=O)Nc2cccc(C(F)(F)F)c2)c2ccccc2)cc1 (stereo not given)	> 100	> 100	> 100	> 100	–	> 100	> 100	> 100	> 100	> 100	–	–	–	–	–	–	–	–	–	–
Cc1c(C(=O)NN)nnn1-c1ccnc2c(C(F)(F)F)cccc12	> 100	> 100	> 100	> 100	> 100	> 100	> 100	–	> 100	> 100	> 100	> 100	> 100	> 100	> 100	> 100	–	> 100	> 100	> 100
CNC(=O)c1cc(Oc2ccc(NC(=O)Nc3ccc(Cl)c(OC(F)(F)F)c3)c(F)c2)ccn1	> 33.2	9.09	8.64	16.8	18.9	5.25	18	–	> 33.2	11	2.89	1.17	1.78	1.19	1.1	1.58	–	1.94	1.53	3.58
CC1(C)OC(=O)C=C([O-])O1.CC1(C)OC(=O)C=C([O-])O1.O=c1c(O)c(-c2ccc([O-])cc2[O-])oc2cc(O)cc(O)c12.[Ti+4]	> 100	> 100	> 100	–	93.3	> 100	> 100	> 100	> 100	> 100	–	–	–	31.6	–	–	–	–	–	36.7
C=C(COC(C)=O)CC(/C=C(\C)CCC=C(C)C)OC(C)=O (stereo not given)	–	> 100	> 100	> 100	> 100	> 100	> 100	–	> 100	> 100	–	–	–	–	–	–	–	–	–	–
CCCNCc1cc(C)cc2c1nc(N1CCNCC1)n2Cc1cc(C)c(F)c(C)c1	27.6	11.7	4.39	6.49	–	3.57	16.4	3.53	4.71	13.5	14.4	3.08	3.71	1.8	1.79	4.46	1.86	2.2	1.83	–
NC(N)=N/N=C/c1c(-c2ccccn2)nc2sc(Cl)cn12	15.6	15.1	–	21.3	–	13.4	14.9	–	–	14.3	8.59	8.05	7.55	–	6.93	8.15	–	–	10	–
CC/C=C\C/C=C\C1CC(=O)NCCCNCCCCN1 (stereo not given)	> 100	> 100	–	> 100	70.4	> 100	–	78.9	–	–	–	–	–	–	–	–	–	–	–	–
CN(C)c1nc(-c2cccs2)n2nc(-c3ccc(Cl)cc3)cc2n1	–	> 100	> 100	–	> 100	> 100	> 100	–	> 100	–	–	> 100	–	> 100	2.49	> 100	–	> 100	–	3.39
O=C1c2ccccc2-c2c1c1ccccc1c(=O)n2CCNCCCNCCn1c2c(c3ccccc3c1=O)C(=O)c1ccccc1-2	1.24	–	> 50	–	0.577	0.368	0.334	–	1.43	1.12	0.563	0.0193	0.362	< 0.005	0.00771	0.0221	–	< 0.005	–	< 0.005
C=CCOc1c(Br)cc(Br)cc1Br	83.6	45.7	99.1	> 100	> 100	9.53	> 100	–	> 100	17.2	13	14.1	3.12	14.7	2.71	16.7	–	10.4	35.6	19.3
COc1ccc(C2=NC(C)(C)CO2)cc1	> 100	> 100	–	> 100	> 100	> 100	> 100	> 100	> 100	> 100	–	–	–	–	–	–	–	–	–	–
NS(=O)(=O)c1ccc(NC(=O)c2cccc3c(=O)c4ccccc4[nH]c23)cc1	> 100	73.6	> 100	> 100	–	> 100	> 100	94.8	> 100	> 100	–	–	–	–	–	–	–	–	–	–
Nc1ccc(SC23CC4CC(CC(C4)C2)C3)cc1	> 100	> 100	–	–	> 100	> 100	> 100	> 100	> 100	> 100	–	–	–	–	–	–	–	–	–	–
CCCS(=O)(=O)c1nc(NC2CC2)cc(-c2ccc3c(ccn3C3CC(C)(C)NC(C)(C)C3)c2)n1	3.05	3.67	4.57	3.08	3.44	3.47	3.12	–	4.8	3.42	1.56	1.83	1.84	2.02	1.82	1.57	–	2.02	1.46	1.64
